Literature values as cited in patent US20130236595A1, “FOOD PRODUCT PROVIDING SUSTAINED BLOOD LEVELS OF EXOGENOUS SUBSTANCES” (NESTEC S.A., priority 2003, published 2013).
Entries after “also recorded” stand apart in the source; their conditions may differ.

Legend:
[1] = caffeine in blood plasma

Cn1c(=O)c2c(ncn2C)n(C)c1=O [caffeine]
threshold value for stimulation [1]: about 2 mg/l
time of peak in caffeine level in blood (after a cup of coffee is consumed): after about an hour; also recorded: after one hour
half-life of caffeine (in adults): 3 to 7 h
